According to article PMC2375285, “Inhibition of all-TRANS-retinoic acid metabolism by R116010 induces antitumour activity” (British Journal of Cancer, 2002):

Legend:
in vivo = conditions: mouse, po
Method: (§1) Cells (1.5×10^6) were injected intraperitoneally in syngeneic A/J mice. […] Each group consisted of 10 animals for experiments with R116010 and of six animals for experiments with RA. All treatments were performed by oral gavage. […] The control groups were given the vehicle 20% 4-OH-β-cyclodextrine in sterile saline. Mice were daily examined for adverse drug effects. At the end of the experiments, subcutaneous tumours were excised 24 h after the last treatment and weighed to validate the antitumoural effects of the treatment.
(§2) Data are represented as box plots showing median group value, 25/75th percentile, 10/90th percentile and outliers. Groups were statistically compared to the vehicle-treated groups using the Mann–Whitney U-test. Significance was defined at the level of P<0.05.

TA3-Ha mammary tumours = test: TA3-Ha mammary carcinoma model; conditions: for toxicity findings: at toxic dose: RA 5, R116010 5, liarozole fumarate 20 mg kg^−1; for therapeutic window: maximum tolerated dose versus lowest active dose, TA3-Ha model; for lowest active dose inhibiting TA3-Ha tumour growth: day 1 until day 21, tumour weight
Method: as §1, §2

T47D cells = test: T47D cell proliferation (MTT assay, 7 days); assay type: cell-based, human
Method: T47D cells were seeded in Falcon® 96-well cell culture plates (Life Technologies, Merelbeke, Belgium) at 2500 cells per well in a total volume of 150 μl. Cells were allowed to adhere to plastic for 24 h. Drugs and/or medium were added to a final volume of 200 μl (day 0). Cells were grown under these conditions for 7 days, with renewal of medium and drugs on days 2 and 5. On day 7, medium was renewed and 25 μl MTT-solution was added, and cells were further incubated for 2 h in a cell incubator. The medium was aspirated and 25 μl Sorensen glycine buffer (0.1 M glycine, 0.1 M NaCl; pH 10.5) was added together with 100 μl DMSO to solubilize the blue MTT-formazan product. […] Data are presented as mean±s.d. of three or four independent experiments. Within an experiment, the result of each experimental condition is the mean of six replicate wells. The IC50-values were calculated by non-linear regression analysis using SigmaPlot 4.01 software.

CYP2C11 = biological target: T1, CYP2C11 (Rattus norvegicus, UniProt P08683); test: Testosterone 2α-hydroxylase in rat liver microsomes; assay type: biochemical; conditions: Rat liver microsomes
T1 construct: hydroxylation of testosterone (CYP2C11, CYP2A1, CYP3A, CYP2B1/2) in rat liver microsomes; from tissue; host or cells: rat liver, microsomes
T1 sequence (P08683 1-500): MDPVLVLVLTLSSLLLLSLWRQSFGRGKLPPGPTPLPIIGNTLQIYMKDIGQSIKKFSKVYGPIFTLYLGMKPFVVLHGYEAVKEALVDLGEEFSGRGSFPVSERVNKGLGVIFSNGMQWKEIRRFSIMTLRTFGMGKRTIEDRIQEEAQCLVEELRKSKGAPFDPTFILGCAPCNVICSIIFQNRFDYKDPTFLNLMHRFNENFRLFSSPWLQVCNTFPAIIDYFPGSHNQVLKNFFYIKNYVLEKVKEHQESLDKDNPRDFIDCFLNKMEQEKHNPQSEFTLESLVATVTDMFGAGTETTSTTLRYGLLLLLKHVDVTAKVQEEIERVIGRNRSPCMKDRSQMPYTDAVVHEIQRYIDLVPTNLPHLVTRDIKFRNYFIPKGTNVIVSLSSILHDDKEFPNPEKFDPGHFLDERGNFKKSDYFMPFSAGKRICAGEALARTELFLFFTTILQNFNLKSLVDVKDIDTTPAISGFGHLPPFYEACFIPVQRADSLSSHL
Method: (§3) The conversion of androstenedione to estrone by aromatase (CYP19) in human placental microsomes, the conversion of 17-hydroxy-20-dihydroprogesterone to testosterone by 17,20-lyase (CYP17) in rat testicular S10 fractions, and the 2α-, 7α-, 6β-, and 16β-hydroxylation of testosterone (CYP2C11, CYP2A1, CYP3A, CYP2B1/2) in rat liver microsomes were carried out as described ([Vanden Bossche et al, 1990]).

CYP3A = conditions: microsomes
Method: as §3

[1] = test system: RA metabolism in intact T47D cells; test: Microcolumn assay for RA metabolism in intact T47D cells; assay type: cell-based, human; conditions: intact T47D cells pretreated 16 h with 1 μM RA; 0.1 μM [3H]RA, 90 min; read-out: IC50 inhibition of RA metabolism
Method: RA metabolism was quantitatively determined using the microcolumn assay as described previously ([Krekels et al, 1997]). […] Cells were then washed twice with culture medium, harvested and resuspended at 4×10^6 cells ml^−1. An aliquot of this cell suspension (450 μl) was incubated for 90 min in the presence of 0.1 μM [11, 12-^3H(N)]RA, after which 2 ml acetonitrile was added. After centrifugation for 10 min at 780 g, the resulting deproteinized supernatant was acidified with 2.5 ml of 40 mM acetic acid and applied to a 3 ml C18 Bond Elut LRC column (Varian, Harbor City, CA, USA; pretreated with 4 ml distilled water) under a vacuum of 127 mmHg using VAC ELUT SPS-24 and the effluent was collected. The column was eluted with 1 ml 40% acetonitrile and the effluent was collected in the same vial. Radioactivity in the collected effluent, containing the polar metabolites, was determined in a Packard Tri-carb 4530 liquid scintillation analyzer. Optiphase ‘Hi Safe II’ (Wallac, Milton Keynes, UK) was used as a scintillator. Data are presented as mean±s.d. of three or four independent experiments. The IC50-values were calculated by non-linear regression analysis using SigmaPlot 4.01 software.

17,20-lyase (CYP17) = biological target: T2, 17,20-lyase (CYP17) (Rattus norvegicus, UniProt P11715); test: 17,20-lyase in rat testicular S10 fraction; assay type: biochemical
T2 construct: 17,20-lyase (CYP17) in rat testicular S10 fractions; from tissue; host or cells: rat testis, S10 fraction
T2 sequence (P11715 1-507): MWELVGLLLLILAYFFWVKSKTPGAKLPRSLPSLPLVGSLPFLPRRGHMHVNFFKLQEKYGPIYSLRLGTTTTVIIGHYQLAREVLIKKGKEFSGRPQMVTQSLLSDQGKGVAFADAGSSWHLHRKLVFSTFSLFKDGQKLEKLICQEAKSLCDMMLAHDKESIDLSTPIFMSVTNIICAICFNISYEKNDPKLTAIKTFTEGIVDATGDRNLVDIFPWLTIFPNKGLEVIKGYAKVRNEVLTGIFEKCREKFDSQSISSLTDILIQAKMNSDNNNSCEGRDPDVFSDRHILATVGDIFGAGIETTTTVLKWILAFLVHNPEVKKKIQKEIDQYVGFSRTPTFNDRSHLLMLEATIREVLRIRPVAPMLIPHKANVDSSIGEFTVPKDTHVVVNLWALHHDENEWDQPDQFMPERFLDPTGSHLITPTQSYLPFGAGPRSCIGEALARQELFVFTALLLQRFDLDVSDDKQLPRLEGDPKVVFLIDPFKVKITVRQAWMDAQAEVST
Method: Metabolism of RA by CYP26A1 was measured in microsomes of T47D human breast cancer cells that were pretreated for 16 h with 1 μM RA to induce RA metabolism. Microsomes were prepared exactly as described by [Han and Choi (1996)], and RA metabolism was measured as described by [Van Wauwe et al (1994)]. The conversion of androstenedione to estrone by aromatase (CYP19) in human placental microsomes, the conversion of 17-hydroxy-20-dihydroprogesterone to testosterone by 17,20-lyase (CYP17) in rat testicular S10 fractions, and the 2α-, 7α-, 6β-, and 16β-hydroxylation of testosterone (CYP2C11, CYP2A1, CYP3A, CYP2B1/2) in rat liver microsomes were carried out as described ([Vanden Bossche et al, 1990]).

CYP2A1 = biological target: T3, CYP2A1 (Rattus norvegicus, UniProt P11711); test: Testosterone 7α-hydroxylase in rat liver microsomes; assay type: biochemical; conditions: Rat liver microsomes
T3 construct: hydroxylation of testosterone (CYP2C11, CYP2A1, CYP3A, CYP2B1/2) in rat liver microsomes; from tissue; host or cells: rat liver, microsomes
T3 sequence (P11711 1-492): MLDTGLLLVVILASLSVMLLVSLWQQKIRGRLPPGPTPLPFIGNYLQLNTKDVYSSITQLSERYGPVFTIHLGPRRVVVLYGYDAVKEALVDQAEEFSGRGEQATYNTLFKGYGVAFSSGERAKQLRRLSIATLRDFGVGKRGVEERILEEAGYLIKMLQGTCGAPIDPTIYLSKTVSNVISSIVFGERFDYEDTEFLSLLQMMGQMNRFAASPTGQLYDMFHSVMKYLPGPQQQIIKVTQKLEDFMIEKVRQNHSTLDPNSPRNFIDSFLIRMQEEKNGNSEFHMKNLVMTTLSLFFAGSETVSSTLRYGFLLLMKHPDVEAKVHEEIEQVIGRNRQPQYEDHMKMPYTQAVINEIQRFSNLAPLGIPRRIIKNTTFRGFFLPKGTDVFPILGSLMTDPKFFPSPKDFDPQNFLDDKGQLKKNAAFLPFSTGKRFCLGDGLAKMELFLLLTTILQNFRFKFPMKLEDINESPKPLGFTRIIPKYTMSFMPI
Method: as §3

CYP2B1/2 = test: Testosterone 16β-hydroxylase in rat liver microsomes; assay type: biochemical; conditions: Rat liver microsomes
Method: as §3

Structure (SMILES)	MTD (in vivo) [mg/kg]	loss of body weight (TA3-Ha mammary tumours; RA 5 mg kg^−1, mice) [%]	toxicity findings (TA3-Ha mammary tumours)	therapeutic window (TA3-Ha mammary tumours)	dose at which toxicity was observed (TA3-Ha mammary tumours; mice, oral, twice daily, toxicity related to hypervitaminosis A) [mg/kg]	lowest active dose inhibiting TA3-Ha tumour growth (TA3-Ha mammary tumours; oral, twice daily) [mg/kg]	IC50 (T47D cells; Homo sapiens, T47D, 168 h, read-out: IC50 T47D cell proliferation) [nM]	IC50 (CYP2C11) [nM]	IC50 (CYP3A) [nM]	IC50 [1] [nM]	IC50 (17,20-lyase (CYP17)) [nM]	decrease of T47D cell proliferation by itself (T47D cells; 10 μM, compound alone)	enhancement of the antiproliferative activity of RA (T47D cells; liarozole-fumarate tested up to 10 μM, T47D cells)	IC50 (CYP2A1) [nM]	IC50 (CYP2B1/2) [nM]
CC1=C(/C=C/C(C)=C/C=C/C(C)=C/C(=O)O)C(C)(C)CCC1 [RA, All-trans-retinoic acid]	5	5	hair loss, and impaired movement due to bone fractures	does not show a real therapeutic window	5	2.5	2 ± 0.5	–	–	–	–	–	–	–	–
Clc1cccc(C(c2ccc3[nH]cnc3c2)n2ccnc2)c1.Clc1cccc(C(c2ccc3[nH]cnc3c2)n2ccnc2)c1.O=C(O)/C=C/C(=O)O.O=C(O)/C=C/C(=O)O.O=C(O)/C=C/C(=O)O (racemic) [liarozole-fumarate, ±-5-[(3-chlorophenyl)(1H-imidazole-1-yl)methyl]-1H-benzimidazole (E)-2-butenedioate (2:3), reference compound]	–	–	hair loss and bone fractures	no therapeutic window	–	10	–	2900	400	1400	110	approximately 25%	unable to enhance	> 10000	500
